Measured values from article PMC7180728, “Novel Anthraquinone Compounds Inhibit Colon Cancer Cell Proliferation via the Reactive Oxygen Species/JNK Pathway” (Molecules, 2020).

Assays:
Assay type in all cases: cell-based, human
[1] = test system: JNK; experiment: Western blot, phosphorylated and total JNK; conditions: HCT116, western blot
Description: To further elucidate the mechanism by which 8a inhibits proliferation and induces apoptosis of HCT116 cells, the levels of phosphorylated and total JNK protein were examined by western blot analysis. […] Phosphorylation of JNK activated by the ROS pathway results in overexpression of tumor suppressor factors, thereby inducing apoptosis. In addition, JNK phosphorylation is associated with ROS production. To determine whether ROS production contributes to JNK1/2 phosphorylation and its related mechanisms, we blocked 8a-induced ROS production in HCT116 cells and then analyzed the changes in JNK 1/2 phosphorylation by western blotting. […] Furthermore, pre-treatment of cells with NAC reduced the levels of p-JNK induced by 8a.
The expression of signaling pathway-related proteins was detected by western blot analysis. Cell (1 × 10^6) were plated in 90-mm dishes and treated with 8a for 24 h. The cells were treated with NAC in the same way as in step 4.7. Resuspend the cells in Buffer A (1 mM EDTA, 1 mM PMSF, 0.28 μg/mL apotinin, 50 μg/mL leupeptin, 7 μg/mL pepstain A) and transferred to a 1 mL glass homogenizer and pull up and down 30 times in an ice bath. Cells were collected and centrifuged (1000 g × 10 min, 4 °C). The obtained supernatant and precipitate were the crude cytoplasm and mitochondria, respectively. The cytosolic fraction was transferred to an ultra-ion tube and centrifuged (100,000g × 1 hr, 4 °C), and the resulting supernatant was the purified cytosolic fraction. The mitochondrial pellet was resuspended in Buffer B (1mM EGTA, 1mM PMSF, 0.28 μg/mL apotinin, 50 μg/mL leupeptin, 7 μg/mL pepstain A), centrifuged (10,000g × 10 min, 4 °C), and repeated 3 times. The mitochondria pellet was lysed in cell lysate buffer (1% NP-40, 2 μg/mL aprotinin, 2 μg/mL leupeptin, 1mM EDTA, 1mM Na vanadate). Protein concentrations in the supernatant were determined by using a Minbio BCA protein assay kit. Protein were separated by SDS-PAGE and transferred to a PVDF membrane. The membrane was blocked, and incubated with primary detection antibodies overnight at 4 °C. […]

[2] = test system: intracellular ROS in HCT116 cells; experiment: Detection of ROS by DCFH-DA, flow cytometry; conditions: compared to DMSO-treated control
Method: Intracellular ROS are key factors in the activation of many signaling pathways, involved in a variety of biological functions including apoptosis and necrosis. High levels of ROS are capable of inducing tumor cell apoptosis. We evaluated the ability of the compounds to induce ROS by flow cytometric analysis of the fluorescent probe DCFH-DA. […] Next, we investigated ROS production before and after induction with 8a and NAC (N-acetyl-L-cysteine).
Cells were added to a 6-well plate (1 × 10^4/well) and incubated for 24 h to allow adherence. Set 0.1% DMSO as the control group, 8a as the treatment group, NAC as the treatment group, 8a + NAC as the treatment group. Among them, in the 8a + NAC treatment group, 8a was added after 5 mM NAC treatment for 1 h. Cells that had been treated for 24 h were collected. The cells were then washed three times with PBS and incubated with 10 μM DCFH-DA for 30 min in the dark. ROS levels were analyzed by flow cytometry.

[3] = test system: HCT116 cells; experiment: MTT cell viability with or without SP600125; conditions: 8a alone, 24 h, compared with the control
Method: Furthermore, to further investigate whether activation of phosphorylated JNK affects cell viability, HCT116 was co-treated with 8a and SP600125 (JNK inhibitor), and the effect of phosphorylated JNK inactivation on HCT116 cell activity was examined by MTT. […] Following co-treatment with 8a and SP600126, the rate cell viability was 55%. The inhibitory proliferation activty of 8a were partially weakened by the usage of 5 μM Sp600125.
Figure 9 The effect of 8a treatment on phosphorylated JNK and JNK expression levels. (A) Western blot analysis of phosphorylated JNK and JNK expression levels of in HCT116 cells treated with 20 μg/mL 8a for time-periods; (B) The expression levels of the phospho-JNK proteins were determined after treatment of HCT116 cells with 20 μg/mL 8a with or without NAC. Data represent the mean ± standard deviation of three independent experiments; (C) Grayscale analysis of the relative protein level of phosphorylated JNK. Data represent the mean ± standard deviation of three independent experiments. * p < 0.05; (D) MTT assay of HCT116 cells viability following treatment with 8a and SP600125 for 24 h.

[4] = test system: cytochrome c; experiment: Western blot, cytochrome c in cytoplasm and mitochondria; conditions: 10 or 20 μg/mL, 24 h, HCT116, western blot
Method: Decreased mitochondrial membrane potential is a hallmark of early cell apoptosis, and a decrease in mitochondrial membrane potential leads to the release of certain mitochondrial proteins, such as cytochrome c, which mediate apoptosis. Therefore, we examined changes in mitochondrial membrane potential by flow cytometry. HCT116 cells were treated with 8a (10 or 20 μg/mL) for 24 h and then stained with 2 μg/mL JC-1 for 30 min prior to flow cytometric analysis. Green /orange fluorescence ratio of JC-1, compare with control, is 200% and 494.4%, respectively (Figure 8E,F). […] During apoptosis, mitochondrial cytochrome C is released into the cytoplasm and triggers the activation cascade of caspase. HCT116 cells were collected after 8a treatment, cytoplasmic protein and mitochondrial protein were extracted. The levels of cytochrome c in the cytoplasm and mitochondria were detected by Western blotting. After treatment of HCT116 cells with 8a (10 or 20 μg/mL) for 24 h, cytoplasmic levels of cytochrome c increased, while the levels in the mitochondria decreased.
The expression of signaling pathway-related proteins was detected by western blot analysis. Cell (1 × 10^6) were plated in 90-mm dishes and treated with 8a for 24 h. The cells were treated with NAC in the same way as in step 4.7. […] Protein concentrations in the supernatant were determined by using a Minbio BCA protein assay kit. […]

`CC(C)CC(NC(=O)c1ccc2c(c1[N+](=O)[O-])C(=O)c1ccccc1C2=O)C(=O)O` (stereo not shown) [Compound 8a, N-[(9,10-dihydro-1-nitro-9,10-dioxo-2-anthracenyl)carbonyl-leucine]] was tested, and the “levels of phosphorylated JNK” value ([1]; 20 μg/mL, time course) was “gradually increased with time”, the “total JNK levels” value ([1]; 20 μg/mL, time course) was “not altered” and the “levels of p-JNK induced by 8a after NAC pre-treatment” value ([1]; 8a 20 μg/mL with NAC pre-treatment) was “reduced”. For the same compound, the “ROS levels (in words)” value [2] was “increase ROS levels in a dose-dependent manner”, the cell viability [3] was 39% and the “cytochrome c levels in the mitochondria” value [4] was “decreased”. The “cytoplasmic levels of cytochrome c” value [4] was “increased”.
